One assay relates to mice. As to the kind of experiment: Feeding test (food intake). In kind it is in vivo, mouse. The following applies: 10 mg/kg i.p., 1-h test, vs vehicle. As for the experimental part:
The tested compounds were injected i.p. (10 mg/kg), and after leaving for 30 min to allow the drug assimilation, mice were placed into individual cages with access to a predefined amount of their standard lab chow (2 g) for the 1-h test.
In Vivo Biological Assays
The international and national law and policies approved by Italian Ministry of Health were used to comply with all animal care and experimental procedures. Animal studies were advised in compliance with the ARRIVE guidelines and with the recommendations made by EU Directive 2010/63/EU for animal experiments and the Basel declaration including the 3Rs concept. CD-1 male mice (10-14 weeks of age, 25-30 g of weight) were bought from Charles River (Milan, Italy). Shortly after their arrival and for at least one week, they were kept in an animal care facility under controlled standard conditions of temperature (21 ± 1 °C), light (from 7:00 AM to 7:00 PM), and relative humidity (60 ± 10%). Access to drinking water and food was assured. All procedures were performed to decrease the number of animals used (n = 7 per group) and their distress.
The test was carried out as previously described. At 24 h before the start of a feeding test, all food was removed from the home cages of mice to be tested. The next day and at least 1 h before the feeding test began, the mice were transported to the laboratory. On test days, the animals were placed in the home cages for 30 min of drug assimilation, during which food was not available. Then compounds were intraperitoneally administered (10 mg/kg). Mice were transferred into transparent and individual plastic cages with thick white paper lining the bottom and access to a pre-measured amount of their regular lab chow (2 gr) for the 1-h test. At the end of 1 h, mice were repositioned into their home cage. The amount of food left in the trial cage, including crumbs, was measured, and the amount consumed was calculated.
Feeding trials normally happened on Tuesdays and Fridays between 12:00 and 14:00 h. […]

Assay [1] deals with T1, CB1R (Rattus norvegicus, UniProt P20272).
T1 construct: Crude membrane fractions were prepared from the brain; from tissue; host or cells: Wistar rat whole brain, crude membrane fraction
T1 sequence (P20272 whole entry): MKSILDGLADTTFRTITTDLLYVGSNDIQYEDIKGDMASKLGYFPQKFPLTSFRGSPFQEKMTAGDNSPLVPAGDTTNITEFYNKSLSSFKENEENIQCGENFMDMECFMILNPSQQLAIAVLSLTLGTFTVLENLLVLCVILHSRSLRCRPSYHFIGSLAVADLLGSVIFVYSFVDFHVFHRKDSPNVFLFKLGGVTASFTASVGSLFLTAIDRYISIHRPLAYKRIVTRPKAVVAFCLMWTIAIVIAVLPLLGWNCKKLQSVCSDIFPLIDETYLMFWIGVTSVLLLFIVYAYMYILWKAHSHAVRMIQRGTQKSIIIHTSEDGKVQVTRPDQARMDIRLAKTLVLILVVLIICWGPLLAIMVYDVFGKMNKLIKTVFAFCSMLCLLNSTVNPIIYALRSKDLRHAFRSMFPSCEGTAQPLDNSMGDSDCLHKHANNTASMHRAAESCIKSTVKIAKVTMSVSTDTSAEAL
As to the kind of experiment: Ligand stimulated [35S]GTPγS binding assay in rat brain membranes. The class given is biochemical. Particulars: for CB1R functional profile (agonist / antagonist / inverse agonist): from [35S]GTPγS binding; for CB1R functional profile (agonist / antagonist / inverse agonist) / EC50: rat brain membranes; for Emax: read-out: [35S]GTPγS stimulation Emax; for EC50: ± SEM, read-out: [35S]GTPγS stimulation EC50. As to the method:
(§1) Our novel chemical compounds were tested in vitro for their binding ability, efficacy, and potency on CB1R in rat brain membrane homogenate (Table 2 and SI, Figure S1). CB1Rs are the most abundant G-protein coupled receptors in the rodent and mammalian brain; therefore, this is an appropriate model to characterize our ligands in a more physiological system.
(§2) In Vitro Biological Assays
(§3) Preparation of Brain Membrane Homogenates
Wistar rats were locally bred and handled according to the EU Directive 2010/63/EU and to the Regulations on Animal Protection (40/2013. (II. 14.) Korm. r.) of Hungary. Crude membrane fractions were prepared from the brain. Brains were quickly removed from the euthanized rats and directly put in an ice-cold 50 mM Tris-HCl buffer (pH 7.4). The collected tissue was then homogenized in 30 volumes (v/w) of an ice-cold buffer with a Braun Teflon-glass homogenizer at the highest rpm. The homogenate was centrifuged at 20,000 × g for 25 min, and the resulting pellet was suspended in the same volume of a cold buffer followed by incubation at 37 °C for 30 min to remove endogenous ligands. Centrifugation was then repeated. The final pellets were taken up in five volumes of a 50 mM Tris-HCl (pH 7.4) buffer containing 0.32 M sucrose and stored at -80 °C. Prior to the experiment, aliquots were thawed and centrifuged at 20,000 ×g for 25 min and then they were resuspended in 50 mM Tris-HCl (pH 7.4), homogenized with a Douncer, followed by the determination of the protein concentration by the method of Bradford. The membrane suspensions were immediately used either in radioligand binding experiments or in [35S]GTPγS functional assays. […]
(§4) was terminated by diluting the samples with an ice-cold wash buffer (50 mM of Tris-HCl, 2.5 mM of EGTA, 5 mM of MgCl2, 0.5% fatty acid free BSA, pH 7.4), followed by repeated washing and rapid filtration through Whatman GF/B glass fiber filters (Whatman Ltd., Maidstone, UK) pre-soaked with 0.1% polyethyleneimine (30 min before the filtration). Filtration was performed with a 24-well Brandel Cell Harvester (Gaithersburg, MD, USA). Filters were air-dried and immersed into Ultima Gold MV scintillation cocktail, and then radioactivity was measured with a TRI-CARB 2100TR liquid scintillation analyzer (Packard, Perkin Elmer, Waltham, MA, USA).
Ligand Stimulated [35S]GTPγS Binding Assay
Rat brain membranes (30 µg protein/tube), prepared as described above, were incubated with 0.05 nM of […]
mM of NaCl, 3 mM of MgCl2 and 1 mM of EGTA in a 50 mM Tris-HCl buffer (pH 7.4) for 60 min at 30 °C. Basal [35S]GTPγS binding was measured in the absence of ligands and set as 100%. Nonspecific […]
binding was determined by the addition of 10 µM unlabelled GTPγS and subtracted from total binding.
Incubation, filtration and radioactivity measurements of the samples were carried out as described above. […]
All […]
data and curves were analyzed by GraphPad Prism 5.0 (San Diego, CA, USA).
A general note: GTPγS resists hydrolysis and so accumulates on activated G proteins.

For assay [2], the target named is T1, CB1R. As to the kind of experiment: [3H]WIN55,212-2 radioligand competition binding assay in rat brain membrane homogenate. The following applies: for Ki: read-out: Ki [3H]WIN55,212-2 binding, 5 nM [3H]WIN55,212-2, ± SEM, n.b. = no binding of ligands was observed. As for the experimental part: as §1, §2, §3
Wistar rats were locally bred and handled according to the EU Directive 2010/63/EU and to the Regulations on Animal Protection (40/2013. (II. 14.) Korm. r.) of Hungary. Crude membrane fractions were prepared from the brain. Brains were quickly removed from the euthanized rats and directly put in an ice-cold 50 mM Tris-HCl buffer (pH 7.4). The collected tissue was then homogenized in 30 volumes (v/w) of an ice-cold buffer with a Braun Teflon-glass homogenizer at the highest rpm. The homogenate was centrifuged at 20,000 × g for 25 min, and the resulting pellet was suspended in the same volume of a cold buffer followed by incubation at 37 °C for 30 min to remove endogenous ligands. Centrifugation was then repeated. The final pellets were taken up in five volumes of a 50 mM Tris-HCl (pH 7.4) buffer containing 0.32 M sucrose and stored at -80 °C. Prior to the experiment, aliquots were thawed and centrifuged at 20,000 ×g for 25 min and then they were resuspended in 50 mM Tris-HCl (pH 7.4), homogenized with a Douncer, followed by the determination of the protein concentration by the method of Bradford. The membrane suspensions were immediately used either in radioligand binding experiments or in [35S]GTPγS functional assays.
Radioligand Competition Binding Assay
Binding experiments were performed at 30 °C for 60 min in a 50 mM Tris-HCl binding buffer (pH 7.4) containing 2.5 mM of EGTA, 5 mM of MgCl2 and 0.5 mg/mL of fatty acid-free BSA in plastic tubes in a total assay volume of 1 mL that contained 0.3-0.5 mg/mL of a membrane protein. Competition binding […]
ligands. […] The incubation […]
as §4, with “MA, USA). […]” for “MA, USA).”
The results of the competition binding studies are reported as means ± S.E.M. of at least three independent experiments each performed in duplicate. In competition binding studies, the inhibitory constants (Ki) were calculated from the inflection points of the displacement curves using non-linear least-square curve fitting and the Cheng-Prusoff equation, Ki= […]/(1 + [ligand]/Kd). […]

“Also recorded” adds a separate entry of the source.

A word on the Emax: it is the greatest response seen or fitted, relative to the assay's reference. A word on the Ki: it is the dissociation constant of the complex between target and ligand, obtained from inhibition or displacement. For the compound `Cc1c(C(=O)N[C@H](C(N)=O)C(C)(C)C)nn(-c2ccc(Cl)cc2)c1-n1cccc1` [Compound 14, RS2691-tLeu-NH2], the food intake entry with mice is listed as “activity profile close to that of the vehicle”. Further, at CB1R [1], the “CB1R functional profile (agonist / antagonist / inverse agonist)” value is listed as “antagonist” and the Emax is 104 ± 1.4%. For the same compound, at CB1R [2], the Ki is 21 ± 3.8 nM.
In general, EC50 refers to the concentration at which the effect is half-maximal. With `COC(=O)[C@@H](NC(=O)c1nn(-c2ccc(Cl)cc2Cl)c(-n2cccc2Cl)c1C)C(C)C` [Compound 29, RS3516-Val-OCH3], the food intake entry in the assay with mice is “strong anorexic effect comparable to that of rimonabant”. In addition, at CB1R [1], the “CB1R functional profile (agonist / antagonist / inverse agonist)” value was “inverse agonists”, the EC50 was determined as 2840 ± 118 nM and the Emax is 44 ± 10%. For the same compound, the Ki on CB1R [2] is 30 ± 3.5 nM.
For `COC(=O)[C@@H](NC(=O)c1cc(-n2cccc2)n(-c2ccc(Cl)cc2)n1)C(C)C` [Compound 21, RS2689-Val-OCH3] the same measures were “slight reduction in food intake”, “inverse agonists”, 1360 ± 139 nM, 52 ± 4.8% and 261 ± 27 nM.
For `COC(=O)[C@@H](NC(=O)c1cc(-n2cccc2)n(-c2ccccc2)n1)C(C)(C)C` [Compound 26, RS2708-tLeu-OCH3] the same measures were “strong anorexic effect comparable to that of rimonabant”, “inverse agonists”, 1290 ± 151 nM, 44 ± 5% and 283 ± 18 nM.
For `Cc1c(C(=O)N[C@H](C(N)=O)C(C)(C)C)nn(-c2ccccc2)c1-n1cccc1` [Compound 18, RS2709-tLeu-NH2] the same measures were “slight reduction in food intake”, “inverse agonist”, 3320 ± 242 nM, 57 ± 13% and 60 ± 6.1 nM.
Turning to `COC(=O)[C@@H](NC(=O)c1cc(-n2cccc2)n(-c2ccc(Cl)cc2)n1)C(C)(C)C` [Compound 22, RS2689-tLeu-OCH3], in the assay on mice, the food intake entry is on record as “activity profile close to that of the vehicle”. On CB1R [1], the “CB1R functional profile (agonist / antagonist / inverse agonist)” value is “inverse agonists”, the EC50 is 4960 ± 333 nM and the Emax was found to be 43 ± 12%. Moreover, the Ki on CB1R [2] came to 44 ± 4 nM.
`COC(=O)[C@@H](NC(=O)c1nn(-c2ccc(Cl)cc2)c(-n2cccc2)c1C)C(C)(C)C` [Compound 24, RS2691-tLeu-OCH3]: the food intake result with mice is reported as “slight reduction in food intake”. Besides, at CB1R [1], the “CB1R functional profile (agonist / antagonist / inverse agonist)” value is reported as “inverse agonists; also recorded: strong antagonist” and the Emax was 99 ± 4%. Besides, on CB1R [2], the Ki was 17 ± 3.7 nM.
As for `CNC(=O)[C@@H](NC(=O)c1nn(-c2ccccc2)c(-n2cccc2)c1C)C(C)(C)C` [Compound 38, RS2709-tLeu-NHCH3], at CB1R [1], the “CB1R functional profile (agonist / antagonist / inverse agonist)” value is on record as “antagonists” and the Emax worked out at 102 ± 2%. Also, the Ki at CB1R [2] came out at 42 ± 3.9 nM.
`CNC(=O)[C@@H](NC(=O)c1nn(-c2ccc(Cl)cc2)c(-n2cccc2)c1C)C(C)C` [Compound 33, RS2691-Val-NHCH3]: the “CB1R functional profile (agonist / antagonist / inverse agonist)” value on CB1R [1] was “antagonists”. For the same compound, on CB1R [2], the Ki turned out to be 168 ± 16 nM.
In the case of `Cc1c(C(=O)N[C@H](C(=O)O)C(C)(C)C)nn(-c2ccc(Cl)cc2)c1-n1cccc1` [Compound 4, RS2691-tLeu-OH], the EC50 at CB1R [1] was 4610 ± 303 nM. Also, the Ki on CB1R [2] amounted to 5880 ± 152 nM.
`COC(=O)[C@@H](NC(=O)c1cc(-n2cccc2)n(-c2ccccc2)n1)C(C)C` [Compound 25, RS2708-Val-OCH3]: on CB1R [1], the EC50 was 468 ± 22 nM. The Ki at CB1R [2] is 1360 ± 16 nM.
`Cc1c(C(=O)N[C@H](C(=O)O)C(C)C)nn(-c2ccc(Cl)cc2)c1-n1cccc1` [Compound 3, RS2691-Val-OH]: the EC50 on CB1R [1] was more than 10000 nM. The “Ki [3H]WIN55,212-2 binding” value at CB1R [2] (5 nM [3H]WIN55,212-2, ± SEM, n.b. = no binding of ligands was observed) was “n.b”.
